The results in this text go back to patent publication US12343321B1, “Method for ameliorating or avoiding the adverse effects of exogenous gonadotropins on reproductive performance” (CHINA AGRICULTURAL UNIVERSITY, priority 2024, dated 2025).

The test system of data set [1] is ICR female mice treated with eCG/hCG. Description: Embryo implantation sites after embryo transfer in gonadotropin-treated mice. The class given is in vivo, mouse. The settings on record: for effect on implantation and live birth, alone or in synergy with NAC/VA: 200 mg/kg BW alone, or 100 + 100 mg/kg BW with NAC/VA; for number of implantation sites compared with control group (exogenous gonadotropin only): 12 embryos transferred on day 4, counted on day 5 of pregnancy, drugs 200 mg/kg BW total i.p. daily, BGJ398 100 μM via uterine horn. From the text: (§1) In the animal experiment, ICR female mice (SPF grade, 8 weeks old, 28-30 g) were selected and randomized into groups of 10-18, including normal control group (CON), superovulation stimulation group (eCG/hCG), superovulation stimulation and BGJ398 group (eCG/hCG+BGJ398), superovulation stimulation and NAC single administration group (eCG/hCG+NAC), superovulation stimulation and VA single administration group (eCG/hCG+VA), superovulation stimulation and NAC and VA combined administration group (eCG/hCG+NAC+VA). The temperature of the breeding environment was 22° C., 12-h light/dark cycle was performed, and the mice were provided with free access to water and food. After the animals were purchased, they were acclimated for 5-7 days.
Superovulation stimulation and BGJ398 group (eCG/hCG+BGJ398): Female 8-week-old ICR mice were taken as the research object and injected with 10 IU eCG and […] to induce superovulation, respectively. On day 3 of pregnancy, the mice were injected with 5 μL of FGF receptor inhibitor containing 100 μM BGJ398 inhibitor through the uterine horn. Embryo transfer was then performed on day 4 after the vaginal plug was observed.
Superovulation stimulation and NAC single administration group (eCG/hCG+NAC): A female 8-week-old ICR mouse was taken as the research object. On the basis of the treatment of the superovulation stimulation group (eCG/hCG), each mouse was intraperitoneally injected with NAC at a dose of 200 mg/kg BW daily 5 days prior to the injection of eCG. Embryo transfer was then performed on day 4 after the vaginal plug was observed. The injection was continued until day 10 of pregnancy.
Superovulation stimulation and VA single administration group (eCG/hCG+VA): A female 8-week-old ICR mouse was taken as the research object. On the basis of the treatment of the superovulation stimulation group (eCG/hCG), each mouse was intraperitoneally injected with VA at a dose of 200 mg/kg BW daily 5 days prior to the injection of eCG/hCG. Embryo transfer was then performed on day 4 after the vaginal plug was observed. The injection was continued until day 10 of pregnancy.
Superovulation stimulation and NAC and VA combined administration group (eCG/hCG+NAC+VA): A female 8-week-old ICR mouse was taken as the research object. On the basis of the treatment of the superovulation stimulation group (eCG/hCG), each mouse was intraperitoneally injected with a mixture of NAC at a dose of 100 mg/kg BW and VA at a dose of 100 mg/kg BW daily 5 days prior to the injection of eCG. Embryo transfer was then performed on day 4 after the vaginal plug was observed. The injection was continued until day 10 of pregnancy.
The mice in the CON group, eCG/hCG group, eCG/hCG+BGJ398 group, eCG/hCG+NAC group, eCG/hCG+VA group, and eCG/hCG+NAC+VA group were separately in the same cage and mated with a vasoligated male mouse. The vaginal plug was checked at about 8 am in the next morning. The pseudopregnant female mouse whose vaginal plug was observed was ready for transfer. The day when the vaginal plug was observed was taken as day 1, and day 4 was the date of blastocyst transfer. […]
Embryo transfer was separately performed on the mice in the CON group, eCG/hCG group, eCG/hCG+BGJ398 group, eCG/hCG+NAC group, eCG/hCG+VA group, and eCG/hCG+NAC+VA group on day 4 of pregnancy; embryo implantation sites were counted by orbital injection of Chicago blue on day 5 of pregnancy. […]

A further data set relates to pERK. Description: Molecular detection of pERK in mouse endometrium after eCG/hCG treatment. The class given is in vivo. The note with it: day 4 after vaginal plug, NAC 200 mg/kg BW i.p. daily, BGJ398 100 μM, 5 μL via uterine horn, or NAC 100 + VA 100 mg/kg BW.
Source text: (§2) 2.2 Molecular Regulation Effect of N-Acetylcysteine in Combination with Vitamin A on Alleviating Uterine Receptivity Decrease Induced by Gonadotropin Treatments
as §1
(§3) Control group (CON): A female 8-week-old ICR mouse was taken as the research object, subjected to natural estrus, mated with a vasoligated male mouse, and was taken as the control group. The uterus of the mouse was then separated on day 4 after the vaginal plug was observed, namely, when the uterine receptivity was established, and the detection of a plurality of signal molecules was carried out. […]

In data set [2] the test system is ICR female mice treated with eCG/hCG. In words: Live birth after embryo transfer in gonadotropin-treated mice. The class given is in vivo. The settings on record: for live births compared with control group (exogenous gonadotropin only): 12 embryos transferred on day 4, counted on day of delivery, drugs 200 mg/kg BW total i.p. daily.
Description: Superovulation stimulation and BGJ398 group (eCG/hCG+BGJ398): Female 8-week-old ICR mice were taken as the research object and injected with 10 IU eCG and PMSG to induce superovulation, respectively. On day 3 of pregnancy, the mice were injected with 5 μL of FGF receptor inhibitor containing 100 μM BGJ398 inhibitor through the uterine horn. Embryo transfer was then performed on day 4 after the vaginal plug was observed.
Embryo transfer was separately performed on the mice in the CON group, eCG/hCG group, eCG/hCG+BGJ398 group, eCG/hCG+NAC group, eCG/hCG+VA group, and eCG/hCG+NAC+VA group on day 4 of pregnancy, and the mice were then placed in the animal house for normal feeding. On the day of delivery, the number born alive index was counted. […]
The test system of another data set is Gilts. Description: Reproductive performance of gilts in batch farrowing with FTAI (pregnancy rate, farrowing rate). The class given is in vivo, pig. The note with it: for Estrus detection rate (%) / Farrowing rate (%) / Pregnancy Rate (%): batch farrowing with FTAI (eCG/GnRH), drugs in feed, 200 mg/kg BW total daily; for female pig farrowing rate compared with batch farrowing with FTAI (control group) / female pig pregnancy rate compared with batch farrowing with FTAI (control group): eCG/GnRH, result in words. From the text:
Gilts with the weight of 120-140 kg and the age of 200-250 days were selected for the experiment, which were divided into the batch farrowing with FTAI (CON) group, batch farrowing supplemented with NAC (NAC) group, batch farrowing supplemented with VA (VA) group, batch farrowing with combined administration of NAC and VA (NAC+VA 1:1) group, batch farrowing with combined administration of NAC and VA (NAC+VA […]) group, and batch farrowing with combined administration of NAC and VA (NAC+VA 9:1) group. Each group had 48-55 gilts.
The technical process of batch farrowing of the gilts in the CON group (namely the batch farrowing with FTAI scheme) was as follows: 1) estrus synchronization treatment: the gilt orally taken altrenogest for 18 days; 2) after an interval of 42 h after the estrus synchronization treatment, exogenous gonadotropin eCG was injected to induce follicular development synchronization; 3) after an interval of 80 h after eCG injection, an ovulatio induction drugs (GnRH) was injected. After an interval of 24 h after the injection, a first mating was carried out, and then after an interval of 16 h, a second mating was carried out. Pregnancy examination was then performed and the gilts were fed normally until delivery.
On the basis of the technical process of batch farrowing of the gilts in the CON group, in the NAC group, VA group, and NAC+VA group, NAC at a dose of 200 mg/kg BW, VA at a dose of 200 mg/kg BW, combined addition of NAC (100 mg/kg BW) and VA (100 mg/kg BW), combined addition of NAC (20 mg/kg BW) and VA (180 mg/kg BW), and combined addition of NAC (180 mg/kg BW) and VA (20 mg/kg BW) were separately added into the feed daily 14 days prior to the eCG injection until the end of first pregnancy examination (day 30-32 of pregnancy). The gilts were then fed normally until delivery.
The pregnancy rate of the female pigs was counted through pregnancy examination; the farrowing rate of the female pigs was counted during delivery. The pregnancy rate and the farrowing rate of female pigs from different treatment groups were calculated as follows: Female pig pregnancy rate=pregnant female pig count/mated female pig count×100% Female pig farrowing rate=delivery female pig count/mated female pig count×100%

In the next data set the test system is ERα. Description: Molecular detection of ERα in mouse endometrium after eCG/hCG treatment. The settings on record: day 4 after vaginal plug, VA 200 mg/kg BW i.p. daily alone, or NAC 100 + VA 100 mg/kg BW. The class given is in vivo.
Source text: as §2, §1, §3

Entries after “also recorded” stand apart in the source; their conditions may differ. Marks after values point to notes of the source that are not given here.

With `O=C1O[C@H]([C@@H](O)CO)C(O)=C1O` [VC, vitamin C], the “effect on implantation and live birth, alone or in synergy with NAC/VA” value in data set [1] is recorded as “do not work well”.
Turning to `CC(=O)N[C@@H](CS)C(=O)O` [NAC, N-acetyl-L-cysteine], the “excessive phosphorylation of pERK (exogenous gonadotropin-induced pERK overexpression)” value in the data set on pERK is “significantly inhibit”. For the same compound, the “number of implantation sites compared with control group (exogenous gonadotropin only)” value in data set [1] is “increased to some extent”. In addition, the “live births compared with control group (exogenous gonadotropin only)” value in data set [2] is listed as “increased to some extent”. In addition, in the data set with Gilts, the “Estrus detection rate (%)” value amounted to 88.89%, the “Farrowing rate (%)” value is given as 81.48^b %, the “Pregnancy Rate (%)” value is 85.19^b % and the “female pig farrowing rate compared with batch farrowing with FTAI (control group)” value is given as “significantly improve”. In the data set on Gilts, the “female pig pregnancy rate compared with batch farrowing with FTAI (control group)” value is reported as “significantly improve”.
Regarding `COc1ccc2[nH]cc(CCNC(C)=O)c2c1` [MT, melatonin], in data set [1], the “effect on implantation and live birth, alone or in synergy with NAC/VA” value is recorded as “do not work well”.
Regarding `CCN1CCN(c2ccc(Nc3cc(N(C)C(=O)Nc4c(Cl)c(OC)cc(OC)c4Cl)ncn3)cc2)CC1` [BGJ398], in the data set with pERK, the “excessive phosphorylation of pERK (exogenous gonadotropin-induced pERK overexpression)” value is recorded as “significantly inhibit”. Further, the “number of implantation sites compared with control group (exogenous gonadotropin only)” value in data set [1] was “significantly higher; also recorded: significantly increase”. In addition, the “toxicity to fetal development after implantation” value in data set [2] (BGJ398 100 μM, 5 μL via uterine horn on day 3) is recorded as “highly toxic; also recorded: negatively affect fetal development; also recorded: fetus regressed”.
As for `CC1=C(/C=C/C(C)=C/C=C/C(C)=C/CO)C(C)(C)CCC1` [VA, vitamin A], in the data set with ERα, the “expression of ERα (exogenous gonadotropin-induced ERα overexpression)” value is reported as “significantly inhibits”. The “number of implantation sites compared with control group (exogenous gonadotropin only)” value in data set [1] is recorded as “increased to some extent”. For the same compound, the “live births compared with control group (exogenous gonadotropin only)” value in data set [2] is reported as “increased to some extent”. Also, in the data set with Gilts, the “Estrus detection rate (%)” value stood at 93.75%, the “Farrowing rate (%)” value is listed as 83.33^b %, the “Pregnancy Rate (%)” value is listed as 89.58^b % and the “female pig farrowing rate compared with batch farrowing with FTAI (control group)” value is “significantly improve”. Besides, the “female pig pregnancy rate compared with batch farrowing with FTAI (control group)” value in the data set with Gilts was “significantly improve”.
